Series [1] can be described thus: Oral bioavailability in mouse at 20 mg/kg. Format: ADME, organism-based. The settings on record: in vivo.
Series [2] can be described thus: Clearance in mouse at 2 mg/kg, iv. It is filed as ADME, organism-based. More on the design: dose 2 mg/kg, route intravenous. The conditions noted are these: in vivo.
Series [3] is described as follows: Volume of distribution at steady state in mouse at 2 mg/kg, iv. It is filed as ADME, organism-based. More on the design: dose 2 mg/kg, route intravenous. The settings on record: in vivo, read-out: Vdss.
Series [4] can be described thus: AUC (0 to infinity) in mouse at 20 mg/kg, po. Format: ADME, organism-based. More on the design: time infinity, dose 20 mg/kg, route oral. The settings on record: plasma.
The target in series [5] is TAK1/TAB1 (Homo sapiens, UniProt O43318). Put plainly: Inhibition of truncated TAK1-TAB1(unknown origin) using MKK7 as substrate by ALPHAScreen assay in presence of ATP. Format: protein-complex assay.
Series [6] in a line: Cmax in mouse at 20 mg/kg, po. It is filed as ADME, organism-based. On the set-up: dose 20 mg/kg, route oral. The conditions noted are these: in vivo.
A short description of series [7]: Metabolic stability in mouse liver microsomes assessed as extraction ratio. Format: ADME, Microsome. The settings on record: read-out: ERH.
The nature of series [8]: Metabolic stability in human liver microsomes assessed as extraction ratio. It is filed as ADME, Microsome. The settings on record: read-out: ERH.
Series [9] can be described thus: AUC (0 to infinity) in mouse at 2 mg/kg, iv. More on the design: time infinity, dose 2 mg/kg, route intravenous. It is filed as ADME, organism-based. The conditions noted are these: plasma.
For series [10], the target named is T1, Mitogen-activated protein kinase kinase kinase 7 (Homo sapiens, UniProt O43318).
T1 sequence (O43318 whole entry): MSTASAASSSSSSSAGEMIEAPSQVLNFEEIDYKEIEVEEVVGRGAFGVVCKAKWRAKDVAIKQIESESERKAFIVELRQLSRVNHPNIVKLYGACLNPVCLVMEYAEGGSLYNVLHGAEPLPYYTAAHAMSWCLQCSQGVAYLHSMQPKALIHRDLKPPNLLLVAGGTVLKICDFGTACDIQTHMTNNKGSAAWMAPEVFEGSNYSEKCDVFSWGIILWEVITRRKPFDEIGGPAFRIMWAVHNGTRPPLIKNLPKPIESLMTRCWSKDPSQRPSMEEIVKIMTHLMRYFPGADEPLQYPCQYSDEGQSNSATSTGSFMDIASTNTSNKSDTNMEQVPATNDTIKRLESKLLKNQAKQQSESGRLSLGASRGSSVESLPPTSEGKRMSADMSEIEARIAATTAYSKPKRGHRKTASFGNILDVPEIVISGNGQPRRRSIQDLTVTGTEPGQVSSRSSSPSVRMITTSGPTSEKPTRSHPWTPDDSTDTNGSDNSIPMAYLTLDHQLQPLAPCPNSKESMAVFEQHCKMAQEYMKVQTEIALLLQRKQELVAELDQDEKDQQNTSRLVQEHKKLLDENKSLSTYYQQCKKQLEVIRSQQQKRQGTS
Description: Inhibition of TAK1 in human HCT116 cells assessed as inhibition of TNF-alpha-stimulated JNK phosphorylation. Format: cell-based, HCT-116.

A short description of series [11]: Half life in mouse at 2 mg/kg, iv. On the set-up: dose 2 mg/kg, route intravenous. The settings on record: in vivo. It is filed as ADME, organism-based.
Series [12] is described as follows: Permeability of the compound by PAMPA. It is filed as ADME. The conditions noted are these: read-out: permeability.

Chain of TAK1/TAB1 (Q15750 whole entry, one chain of several, the tested form may be a part): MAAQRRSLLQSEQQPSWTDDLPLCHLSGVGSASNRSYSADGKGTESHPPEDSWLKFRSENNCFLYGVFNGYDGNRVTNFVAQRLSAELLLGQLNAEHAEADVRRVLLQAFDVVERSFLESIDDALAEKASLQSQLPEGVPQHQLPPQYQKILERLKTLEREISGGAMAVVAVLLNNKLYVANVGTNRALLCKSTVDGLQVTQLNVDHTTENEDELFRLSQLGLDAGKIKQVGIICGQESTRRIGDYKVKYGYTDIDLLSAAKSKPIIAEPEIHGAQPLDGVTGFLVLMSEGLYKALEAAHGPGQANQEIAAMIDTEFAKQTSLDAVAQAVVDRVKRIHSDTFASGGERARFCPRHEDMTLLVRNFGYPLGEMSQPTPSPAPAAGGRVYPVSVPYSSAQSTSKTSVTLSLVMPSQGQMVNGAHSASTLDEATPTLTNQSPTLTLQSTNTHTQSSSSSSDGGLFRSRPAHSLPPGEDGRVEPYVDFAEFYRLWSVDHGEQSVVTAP

In [1], `CC(=O)N1CCC(n2cc(-c3cnc(N)c4oc(-c5cccc6cnsc56)cc34)cn2)CC1` gave a bioavailability of 11%. Also, in series [2], the clearance came to 128 mL/min/kg. In series [3], the Vd came to 2.5 L/kg. The results for the AUC(0-inf) in [4] and in series [9] were 285 ng·h/mL and 261 ng·h/mL, respectively. Besides, the IC50 in series [5] worked out at 23 nM; in series [10] it was 44 nM. The compound further showed a Cmax in series [6] of 1600 nM. Also, the results for the hepatic extraction ratio in series [7] and in series [8] were 0.84 and 0.73, respectively. The half-life in series [11] is 30 min.

Regarding `CC(=O)N1CCC(n2cc(-c3cnc(N)c4oc(-c5cccc6ncsc56)cc34)cn2)CC1`, the IC50 in [5] stood at 13 nM; in series [10] it was 10 nM. For the same compound, the hepatic extraction ratio in series [7] came out at 0.68; in series [8] it was 0.62.

In the case of `Nc1ncc(-c2cnn(C3CCNCC3)c2)c2cc(-c3ccccc3)oc12`, the Papp in [12] was less than 1 ×10⁻⁶ cm/s. Besides, the IC50 in series [5] is 2700 nM.

On to `Nc1ncc(-c2cnn(C3CCNCC3)c2)c2cc(-c3cccc4ccsc34)oc12`, for which the Papp in series [12] is less than 1 ×10⁻⁶ cm/s. Moreover, the IC50 in series [5] was 1200 nM.

The values are drawn from ChEMBL document CHEMBL2407040, “Discovery and optimization of 7-aminofuro[2,3-c]pyridine inhibitors of TAK1” (Bioorg Med Chem Lett, 2013).
